Measurements from patent US20090055945A1, “Method for Producing Nuclear-Transplanted Egg” (priority 2005, published 2009).

Experiments:
[1] = system: oocytes injected with nuclear domains of round spermatids (ROSI); test: Paternal genome DNA methylation, spermatid injection (ROSI); format: cell-based, mouse; conditions: Spermatid (ROSI); 10 μM 5-azacytidine, 20 hours
Description: The oocytes injected with the nuclear domains of round spermatids obtained by ROSI were cultured for 20 hours in the presence of 20 ng/ml of demecolcine in a medium containing 10 μM 5-azacytidine (5-aza) or 500 nM TSA as an anti-methylation agent. Similarly, injection of mature sperms was carried out (ICSI (intracytoplasmic sperm injection)). Specifically, heads of sperms were separated from the tails by applying pulses to the head-tail junctions by means of a piezo-driven pipette (PrimeTech), and injected into oocytes. The oocytes were not subjected to activation in this case.
The cultured oocytes injected with nuclei were fixed in PBS containing 4% paraformaldehyde at 4° C. overnight, washed in PBS containing 0.1% polyvinyl alcohol (PVA), and blocked in PBS containing 3% bovine serum albumin (BSA) and 0.2% Triton X-100 at 4° C. overnight. Subsequent steps were carried out at room temperature. The fixed oocytes injected with nuclei were permeabilized by treating with 0.2% Triton X-100 in PBS at room temperature. The oocytes were then treated with 2N HCl at room temperature for 50 minutes, neutralized in 100 mM Tris-HCl buffer (pH 8.0) (Non-patent Document 15), and extensively washed with PBS containing 1% BSA.
Next, incubation. with an anti-5-methylcytidine antibody (Eurogentec) in PBS containing 0.1% PVA was carried out for 2 to 3 hours. After extensively being washed, oocytes were stained with Alexa Flour-488 secondary antibody (Molecular Probes), stained with 5 μg/ml 4′,6′-diamidino-2-phenylindole (DAPI) for 30 minutes, and mounted using Vectashield (Vector Laboratory). The specimens were observed using Olympus BX51 microscope (Olympus). All images were captured with DP70 Olympus digital camera using Olympus Analysis software to apply colors to DAPI-stained DNA and merged images.
For quantitative analysis of pronuclear DNA methylation levels, fluorescence images were subjected to densitometric analysis using the program Image-J from the National Institute of Health (http://rsb.info.nih.gov/ij/). For each pronucleus, the relative intensity of methylation of the paternal genome was calculated as a percentage of the fluorescence intensity of the maternal genome. In Table 3, data with (b) and without (a) anti-methylation agent were statistically analyzed by Scheffe tests for multiple mean comparisons using the statistical program SPSS version 12.0 (SPSS Inc.). All percentile data were subjected to arcsine transformation prior to the statistical analysis.

[2] = system: oocytes injected with mature sperm (ICSI); test: Paternal genome DNA methylation, mature sperm injection (ICSI); format: cell-based, mouse; conditions: 10 μM 5-azacytidine, 20 hours
Description: The oocytes injected with the nuclear domains of round spermatids obtained by ROSI were cultured for 20 hours in the presence of 20 ng/ml of demecolcine in a medium containing 10 μM 5-azacytidine (5-aza) or 500 nM TSA as an anti-methylation agent. Similarly, injection of mature sperms was carried out (ICSI (intracytoplasmic sperm injection)). Specifically, heads of sperms were separated from the tails by applying pulses to the head-tail junctions by means of a piezo-driven pipette (PrimeTech), and injected into oocytes. The oocytes were not subjected to activation in this case. […]
For quantitative analysis of pronuclear DNA methylation levels, fluorescence images were subjected to densitometric analysis using the program Image-J from the National Institute of Health (http://rsb.info.nih.gov/ij/). For each pronucleus, the relative intensity of methylation of the paternal genome was calculated as a percentage of the fluorescence intensity of the maternal genome. In Table 3, data with (b) and without (a) anti-methylation agent were statistically analyzed by Scheffe tests for multiple mean comparisons using the statistical program SPSS version 12.0 (SPSS Inc.). […]

[3] = system: nuclear transfer oocytes (nuclei from cumulus cells in enucleated oocytes); test: Expanded blastocyst formation of nuclear transfer oocytes (cumulus cell nuclei); format: cell-based, mouse; conditions: 5 μM apicidin
Description: Production of cloned mice including production of nuclear transfer embryos was carried out according to the method as described in Non-patent Document 5. Briefly, pregnant mare serum gonadotrophin (PMSG) was first administered to 8-weeks-old female B6D2F1 (C57BL/6 XDBA/2) mice (Japan SLC) for superovulation treatment. Human choriogonadotropin (hCG) was administered after 48 hours. Oocytes were collected after 16 hours. Nuclei were removed from the collected unfertilized oocytes in the presence of 5 μg/ml of cytochalasin B using a micromanipulator (enucleation).
Next, cell membranes of cumulus cells from a B6D2F1 mouse as donor somatic cells suspended in a 1.2% polyvinylpyrrolidone (PVP) solution were destroyed using an injection pipette, and the nuclei were injected into the enucleated oocytes using a micromanipulator (nuclear transfer). A piezo drive apparatus (Prime Tech) was used to generate piezo-pulses for penetration of zona pellucida or cell membranes which is required for injection of nuclei.
The thus obtained nuclear transfer oocytes were cultured in a CO2 incubator at 37° C. for 30 minutes to 1 hour. The oocytes were then transferred to an oocyte activation solution (Ca^2+-free CZB medium supplemented with 5 mM strontium chloride (SrCl2) and 5 μg/ml of cytochalasin B (Non-patent Document 10)) containing 0.5, 5, 50 or 500 nM trichostatin A (hereinafter referred to as TSA) to artificially activate the oocytes and initiate the development. Activation of oocytes was confirmed 6 hours after the initiation of activation using pronuclei formation as an index. Activated nuclear transfer oocytes were transferred to KSOM medium (Specialty Media) containing TSA at the same concentration, and cultured for further 14 hours (for 20 hours after the initiation of activation) in the medium. For a control, dimethyl sulfoxide (DMSO), which was used for dissolving TSA, was used in place of TSA to produce the same concentration.
Then, the nuclear transfer embryos at the 2-cell stage were cultured in KSOM medium without TSA until 96 hours after the initiation of activation, and development into expanded blastocysts was observed. The development into expanded blastocyst was confirmed by culturing for 96 hours after the initiation of activation and then observing under a microscope one in which the volume of embryo was increased to result in expansion of the blastocyst and thinning of zona pellucida among blastocysts having blastocoels. 80 or more embryos were examined in each of the experimental groups of the respective concentrations.
The ratio of the developed blastocysts to the number of nuclear transfer oocytes used (blastocyst formation rate (%)) was determined. The ratio of the developed expanded blastocysts to the number of oocytes that initiated cleavage (i.e., developed into the 2-cell stage) among the reconstructed nuclear transfer oocytes (blastocyst formation rate (%)) was determined.
Nuclear transfer oocytes were produced by injecting nuclei from cumulus cells into enucleated oocytes according to the method as described in Example 1, cultured in KSOM medium containing TSA at a concentration of 5 nM for various periods of time (for 0, 24, 48 or 72 hour(s) from the initiation of activation), and then cultured in KSOM medium without TSA until 96 hours after the initiation of activation. Then, development into expanded blastocysts was observed and the blastocyst formation rate was determined. […]

[4] = system: immortalized bovine mammary epithelial cells (MECL) or bovine fetal fibroblasts (BFF); conditions: MECL or BFF treated before nuclear transfer; Non-patent Document 2; cited from earlier work

Structure (SMILES): Nc1ncn([C@@H]2O[C@H](CO)[C@@H](O)[C@H]2O)c(=O)n1 [5-aza, 5-azacytidine]
- Ratio of methylation level of paternal genome to maternal genome (%) [1]: 54.9^b %
- Ratio of methylation level of paternal genome to maternal genome (%) [2]: 17.5^b %

Structure (SMILES): CCC(=O)CCCCC[C@@H]1NC(=O)[C@H]2CCCCN2C(=O)[C@H]([C@@H](C)CC)NC(=O)[C@H](Cc2cn(OC)c3ccccc23)NC1=O [apicidin]
- increase in blastocyst formation rate vs control [3]: about 2 fold
- blastocyst formation rate ([3]; method of Example 1): 69.0%

Structure (SMILES): CCCC(=O)[O-].[Na+] [sodium butyrate]
- blastocyst development rate [4]: increased
